Data as given in US20150314007A1, “LINKER-PAYLOAD MOLECULE CONJUGATES” (GLYKOS FINLAND OY, priority 2012, published 2015).
Where a SMILES comes first, the peptide text is derived from it. [ ]: non-standard residue; d: D form. The star is where a group is joined. Dolaproine = CO[C@@H]([C@@H]1CCCN1)[C@@H](C)C(=O)O; Dil = CC[C@H](C)[C@H](NC)[C@@H](CC(=O)O)OC; Doe = c1ccc(C[C@H](N*)c2nccs2)cc1; NMeV = CN[C@H](C(=O)O)C(C)C

Test system: Human ovarian cancer cell line SKOV-3
Assay: In vitro cytotoxicity, SKOV-3 cell viability (PrestoBlue)
Conditions: for cytotoxicity compared with 1 (MMAF): SKOV-3, applied to the cell culture medium; for cytotoxicity compared with 2 (monomethyldolastatin 10): SKOV-3
[1] = SKOV-3, 96 h, concentration range wherein viability falls to 50%, measured range 1 nM-10 μM

Procedure: Human ovarian cancer cell line SKOV-3 was from the ATCC (Manassas, Va., USA). The cells were grown according to the manufacturer's recommendations. Log phase cultures were collected and 5000 cells/well were seeded onto 96-well plates and incubated for 24 h. Serial dilutions of test molecules from a stock solution of 100 μM in 10% DMSO were made in cell culture medium, added to cells (maximum concentration of dimethylsulphoxide was 1%) and cultures were incubated further for 96 h. Cell viability was evaluated using PrestoBlue cell viability reagent (Life Technologies, Carlsbad, Calif., USA) according to the manufacturer's instructions. Cells were incubated for 2 h, and dye reduction was measured by absorbance at 570 nm. The compounds were assayed 1-2 times in triplicate.

Row | Compound | IC50 (Homo sapiens, SK-OV-3, 96 h) [nM] | cytotoxicity compared with 1 (MMAF) | cytotoxicity compared with 2 (monomethyldolastatin 10) | IC50 [1] [nM]
1 | CCC(C)C(C(CC(=O)N1CCCC1C(OC)C(C)C(=O)NC(Cc1ccccc1)C(=O)O)OC)N(C)C(=O)C(NC(=O)C(C(C)C)N(C)CC(O)C(O)C(OC1OC(CO)C(O)C(OC2(C(=O)O)CC(O)C(NC(C)=O)C(C(O)C(O)CO)O2)C1O)C(O)CO)C(C)C [Compound 11, N-{4-O-[3-O-(α-N-acetylneuraminyl)-β-D-galactopyranosyl]-D-glucosyl}-MMAF] | > 10000 | less cytotoxic |  | 
2 | CCC(C)C(C(CC(=O)N1CCCC1C(OC)C(C)C(=O)NC(Cc1ccccc1)C(=O)O)OC)N(C)C(=O)C(NC(=O)C(C(C)C)N(C)CCC(O)C(O)C(O)CO)C(C)C [Compound 5, N-(2-deoxy-D-glucosyl)-MMAF] | 1000 | equally or only slightly less cytotoxic |  | 
3 | N-glutaryl-MMAF [Compound 14b] |  |  | equally or only slightly less cytotoxic | 100 to 1000
4 | CCC(C)C(C(CC(=O)N1CCCC1C(OC)C(C)C(=O)NC(Cc1ccccc1)C(=O)O)OC)N(C)C(=O)C(NC(=O)C(C(C)C)N(C)CC(O)C(O)C(OC1OC(CO)C(OC2OC(CO)C(O)C(O)C2O)C(O)C1O)C(O)CO)C(C)C [Compound 10, N-{4-O-[4-O-(α-D-galactopyranosyl)-β-D-galactopyranosyl]-D-glucosyl}-MMAF] | 1000 to 10000 |  |  | 
5 | CC[C@H](C)[C@@H]([C@@H](CC(=O)N1CCC[C@H]1[C@H](OC)[C@@H](C)C(=O)N[C@@H](Cc1ccccc1)C(=O)O)OC)N(C)C(=O)[C@@H](NC(=O)[C@@H](NC)C(C)C)C(C)C [Compound 1, Monomethylauristatin F, reference compound] (HELM PEPTIDE1{[meV].V.[CC[C@H](C)[C@@H]([C@@H](CC(=O)[*:2])OC)N(C)[*:1]].[CO[C@H]([C@@H](C)C(=O)[*:2])[C@@H]1CCCN1[*:1]].F}$$$$V2.0) |  |  |  | 100 to 1000
6 | CCC(C)C(C(CC(=O)N1CCCC1C(OC)C(C)C(=O)NC(Cc1ccccc1)c1nccs1)OC)N(C)C(=O)C(NC(=O)C(C(C)C)N(C)CC(O)C(O)C(O)C(O)CN=[N+]=[N-])C(C)C [Compound 13, N-(6-azido-6-deoxy-D-galactosyl)-dolastatin 10] | < 1 |  | equally or only slightly less cytotoxic | 
7 | N-(6-O-propargyl-D-galactosyl)-MMAF [Compound 3] |  |  |  | 100 to 10000
8 | CC[C@H](C)[C@@H]([C@@H](CC(=O)N1CCC[C@H]1[C@H](OC)[C@@H](C)C(=O)N[C@@H](Cc1ccccc1)c1nccs1)OC)N(C)C(=O)[C@@H](NC(=O)[C@@H](NC)C(C)C)C(C)C [Compound 2, monomethyldolastatin 10, reference compound] (H-[NMeV]V[Dil][Dolaproine]-Doe) |  |  |  | < 1
9 | N-(6-azido-6-deoxy-D-galactosyl)-MMAF [Compound 4] |  |  |  | 100 to 1000
10 | C#CCCN(C)C(C(=O)NC(C(=O)N(C)C(C(C)CC)C(CC(=O)N1CCCC1C(OC)C(C)C(=O)NC(Cc1ccccc1)C(=O)O)OC)C(C)C)C(C)C (centres unmarked) [Compound 6, N-(3-butynyl)-MMAF] | < 1 | more cytotoxic |  | 
11 | CCC(C)C(C(CC(=O)N1CCCC1C(OC)C(C)C(=O)NC(Cc1ccccc1)C(=O)O)OC)N(C)C(=O)C(NC(=O)C(C(C)C)N(C)CC(O)C(O)C(O)C(O)COC1OC(CO)C(O)C(O)C1O)C(C)C [Compound 8, N-[6-O-(β-D-galactopyranosyl)-D-galactosyl]-MMAF] | 1000 to 10000 | less cytotoxic |  | 
